The source of these data is PubChem BioAssay (NCI).

The structures appear in SMILES notation.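 Tested at 5 concentrations; 48 h exposure; 96-well plates; endpoints linearly interpolated, else capped at highest concentration. The concentration for 50% growth inhibition is given as GI50. TGI marks complete inhibition of growth.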

Some test systems named below: ACHN renal; OVCAR-8 ovarian; SNB-75 CNS; KM12 colon; K-562 leukemia; UACC-257 melanoma; LOX IMVI melanoma; UO-31 renal; SF-539 CNS; SF-295 CNS.
Assay in all cases: inhibition of tumour cell growth, NCI panel, 48 h

As for `CN(C)CCNC(=O)NC[C@H]1CC[C@@H]2[C@H](O1)c1cc(C(F)(F)F)ccc1N[C@H]2c1ccccc1`, the GI50 in the assay with ACHN renal is 10.5 µM; in the assay on OVCAR-8 ovarian, 0.233 µM; in the assay on SNB-75 CNS, 0.32 µM; in the assay with KM12 colon, 0.296 µM; in the assay with K-562 leukemia, 0.0757 µM; with UACC-257 melanoma, 10.5 µM. The GI50 is 2.53 µM in the assay on LOX IMVI melanoma, 6.12 µM in the assay on UO-31 renal, 0.187 µM in the assay on SF-539 CNS and 0.194 µM in the assay with SF-295 CNS. Also, the TGI with ACHN renal was 23 µM; with OVCAR-8 ovarian, over 100 µM; in the assay with SNB-75 CNS, 23.4 µM; in the assay with KM12 colon, 14.6 µM; with K-562 leukemia, 14.8 µM; in the assay on UACC-257 melanoma, 23.9 µM. Besides, the TGI is 27.3 µM in the assay on LOX IMVI melanoma, 34.6 µM with UO-31 renal, 8.31 µM in the assay on SF-539 CNS and 5.73 µM in the assay with SF-295 CNS.

For the compound `COC1=CC(=O)c2nc(Cl)ccc2C1=O`, the GI50 in the assay with ACHN renal is 1.67 µM; in the assay on OVCAR-8 ovarian it was 1.68 µM; in the assay with SNB-75 CNS, 1.35 µM; in the assay on KM12 colon, 2.11 µM; in the assay on K-562 leukemia, 2.98 µM; with UACC-257 melanoma, 1.68 µM. For the same compound, the GI50 in the assay on LOX IMVI melanoma was 1.38 µM; with UO-31 renal it was 1.63 µM; in the assay on SF-539 CNS it was 1.62 µM; with SF-295 CNS it was 1.69 µM. Further, the TGI in the assay with ACHN renal is 3.04 µM; in the assay on OVCAR-8 ovarian, 3.11 µM; in the assay on SNB-75 CNS, 2.73 µM; in the assay with KM12 colon, 4.82 µM; in the assay on K-562 leukemia it was over 100 µM; in the assay on UACC-257 melanoma, 3.12 µM. The TGI was 2.8 µM with LOX IMVI melanoma, 3.12 µM in the assay on UO-31 renal, 3.03 µM with SF-539 CNS and 3.51 µM in the assay on SF-295 CNS.

As for `O=C(/C=C/OC(=O)c1cccc(Cl)c1)c1ccc(Cl)cc1`, the GI50 in the assay on ACHN renal is 52.3 µM; in the assay with OVCAR-8 ovarian it was 46.4 µM; in the assay on SNB-75 CNS, 17.3 µM; in the assay with KM12 colon, over 74.6 µM; with K-562 leukemia, 34.5 µM; in the assay with UACC-257 melanoma it was 97.6 µM. Further, the GI50 in the assay on LOX IMVI melanoma was 36.5 µM; in the assay on UO-31 renal it was over 100 µM; in the assay on SF-539 CNS, 23.1 µM; in the assay with SF-295 CNS it was 27.3 µM. Moreover, the TGI in the assay with ACHN renal is over 100 µM; with OVCAR-8 ovarian, over 100 µM; in the assay on SNB-75 CNS, 73.5 µM; with KM12 colon, over 100 µM; in the assay on K-562 leukemia, over 100 µM; in the assay on UACC-257 melanoma, over 100 µM. The TGI in the assay with LOX IMVI melanoma is over 100 µM; in the assay on UO-31 renal it was over 100 µM; in the assay with SF-539 CNS, 55.2 µM; with SF-295 CNS, over 80.1 µM.

Take `CN(C)CCOC(=O)Nc1nc2ccc(Sc3ccccc3)cc2[nH]1`: the GI50 in the assay with ACHN renal is 6.52 µM; with OVCAR-8 ovarian, 4.26 µM; in the assay with SNB-75 CNS it was 1.98 µM; in the assay with KM12 colon, 3.51 µM; in the assay on K-562 leukemia, 0.613 µM; with UACC-257 melanoma it was 13.4 µM. Further, the GI50 in the assay with LOX IMVI melanoma is 4.26 µM; with UO-31 renal, 3.11 µM; in the assay with SF-539 CNS it was 2.27 µM; in the assay with SF-295 CNS it was 2.96 µM. The TGI stood at 19.2 µM with ACHN renal; 26.8 µM with OVCAR-8 ovarian; 7.66 µM in the assay on SNB-75 CNS; 19.7 µM in the assay with KM12 colon; 13.7 µM in the assay on K-562 leukemia; 29.4 µM with UACC-257 melanoma. Further, the TGI in the assay with LOX IMVI melanoma turned out to be 15.9 µM; in the assay on UO-31 renal it was 15.4 µM; in the assay on SF-539 CNS it was 5.85 µM; in the assay on SF-295 CNS, 13.4 µM.

Consider `CCCCCC[C@H](C)NC(=O)c1ccc(Nc2nc3ccccc3c3occc23)cc1`, for which the GI50 with ACHN renal is 13.7 µM; in the assay on OVCAR-8 ovarian it was 2.92 µM; in the assay on SNB-75 CNS, 3.99 µM; in the assay on KM12 colon, 4.27 µM; in the assay with K-562 leukemia it was 8.72 µM; in the assay on UACC-257 melanoma, 2.64 µM. Moreover, the GI50 with LOX IMVI melanoma was 11.4 µM; in the assay with UO-31 renal, 0.596 µM; with SF-539 CNS, 2.48 µM; in the assay with SF-295 CNS, 2.62 µM. Further, the TGI in the assay with ACHN renal is 40 µM; in the assay on OVCAR-8 ovarian, 8 µM; with SNB-75 CNS, 7.69 µM; with KM12 colon it was 20.5 µM; with K-562 leukemia, over 100 µM; in the assay on UACC-257 melanoma, 6.17 µM. Also, the TGI was 24.3 µM with LOX IMVI melanoma, 3.53 µM in the assay with UO-31 renal, 5.31 µM with SF-539 CNS and over 100 µM in the assay on SF-295 CNS.

For `O=c1c2c(c1=O)-c1ccccc1CN2`, the TGI with ACHN renal, with OVCAR-8 ovarian, in the assay on SNB-75 CNS, in the assay on KM12 colon, in the assay on K-562 leukemia and with UACC-257 melanoma was over 100 µM throughout. Moreover, the TGI in the assay on LOX IMVI melanoma, in the assay on UO-31 renal and in the assay with SF-539 CNS was over 100 µM each time.

For the compound `COc1ccc2nc(NC(=O)C(=O)NNC(=O)c3ccncc3)sc2c1`, the TGI with ACHN renal, in the assay with OVCAR-8 ovarian, in the assay with SNB-75 CNS, in the assay on K-562 leukemia, with UACC-257 melanoma and in the assay with LOX IMVI melanoma was over 100 µM in each case. The TGI in the assay on UO-31 renal, in the assay on SF-539 CNS and with SF-295 CNS was over 100 µM in each case.

For `O=c1c(Cl)cc2nc3ccccc3sc-2c1Cl`, the TGI was 30.2 µM in the assay on ACHN renal; 32.7 µM in the assay on SNB-75 CNS; 38.4 µM in the assay with KM12 colon; over 100 µM in the assay on K-562 leukemia; 8.2 µM with UACC-257 melanoma; 43 µM with LOX IMVI melanoma. In addition, the values for the TGI in the assay on UO-31 renal, with SF-539 CNS and in the assay with SF-295 CNS were 29.1 µM, 30.8 µM and 34.4 µM, respectively.

Regarding `C=C1Cc2cc(OC)c(OC)c(OC)c2-c2ccc(SC)c(=O)cc21`, the TGI with ACHN renal is 6.2 µM; with SNB-75 CNS, 15.1 µM; in the assay on KM12 colon, under 0.01 µM; with K-562 leukemia, over 34.8 µM; with UACC-257 melanoma, 7.62 µM; in the assay with LOX IMVI melanoma, 0.343 µM. Also, the TGI in the assay with UO-31 renal was 6.96 µM; with SF-539 CNS, under 0.01 µM; in the assay on SF-295 CNS it was 4.12 µM.
